Assay results published in patent US20090315454A1, “IRIDIUM COMPLEX COMPOUND, ORGANIC ELECTROLUMINESCENT DEVICE OBTAINED BY USING THE SAME, AND USES OF THE DEVICE” (Showa Denko K.K., priority 2006, published 2009).

Assay: Solubility test (visual, complete dissolution at prescribed concentration)
Format: physicochemical
Design: key: A: completely dissolved; B: partially undissolved
Details: stirred at room temperature for one hour
Experimental: The facial and meridional iridium complex compounds (A) synthesized in Example 1 and the facial iridium complex compounds (B) to (D) synthesized in Examples 2 to 4 were tested for solubility. The test was carried out by mixing the iridium complex compound with chloroform or toluene so that a prescribed concentration was obtained, and visually determining if the iridium complex compound was completely dissolved or partially undissolved after the mixture had been stirred at room temperature for one hour.
Iridium complex compounds Ir(ppy)3 (the following Formula (Y)) and Ir(Fppy)3 (the following Formula (X)) were tested for solubility. The test was carried out by mixing the iridium complex compound with chloroform or toluene so that a prescribed concentration was obtained, and visually determining if the iridium complex compound was completely dissolved or partially undissolved after the mixture had been stirred at room temperature for one hour.

| Solubility at concentration 0.1 wt % (chloroform) | Solubility at concentration 0.5 wt % (chloroform) | Solubility at concentration 1 wt % (chloroform) | Solubility at concentration 0.1 wt % (toluene) | Solubility at concentration 0.5 wt % (toluene) | Solubility at concentration 1 wt % (toluene) | SMILES |
| --- | --- | --- | --- | --- | --- | --- |
| A | A | A | A | A | A | CCCc1cc(-c2c(F)cc(F)c[c]2[Ir]([c]2cc(F)cc(F)c2-c2cc(CCC)c(CC)cn2)[c]2cc(F)cc(F)c2-c2cc(CCC)c(CC)cn2)ncc1CC [Compound (D) facial complex] |
| A | A | A | A | B | B | CCCCCc1ccnc(-c2c(F)cc(F)c[c]2[Ir]([c]2cc(F)cc(F)c2-c2cc(CCCCC)ccn2)[c]2cc(F)cc(F)c2-c2cc(CCCCC)ccn2)c1 [Compound (B) facial complex] |
| A | A | A | A | A | A | CC(C)(C)c1ccnc(-c2[c-]cc(F)cc2F)c1.CC(C)(C)c1ccnc(-c2[c-]cc(F)cc2F)c1.CC(C)(C)c1ccnc(-c2[c-]cc(F)cc2F)c1.[Ir+3] [Compound (A) meridional complex] |
| A | A | A | A | A | B | CCCCC(CCCC)c1ccnc(-c2c(F)cc(F)c[c]2[Ir]([c]2cc(F)cc(F)c2-c2cc(C(CCCC)CCCC)ccn2)[c]2cc(F)cc(F)c2-c2cc(C(CCCC)CCCC)ccn2)c1 [Compound (C) facial complex] |
